Assay results reported in patent publication US20060041144A1 (priority 2002, published 2006).

Legend:
Plasmopara viticola = assay: Preventive foliar spray test on grape inoculated with Plasmopara viticola zoosporangia (Test Examples 3 and 4); format: in vivo; conditions: grape (variety: Berry A), flowable diluted to 200 ppm, foliar spray before inoculation, observed after 1 day at 23° C. plus 6 days in green house; Test Example 4
Procedure: Additionally, the control effect was evaluated by visually observing the area of a lesion on a sample plant in investigation and comparing the area of a lesion on a non-treatment plant and the area of a lesion on a treated plant with the compound of the present invention.
Sand loam was compacted in a plastic pot, and a grape (variety: Berry A) was seeded and grown in a green house for 40 days. The compounds of the present invention (I-1), (I-2), (I-6) to (I-12), (II-1), (III-1) and (IV-1) were formulated to flowable according to Formulation Example 6, then, diluted with water to provide given concentration of 200 ppm, and these diluted solutions were sprayed onto stems and leaves so as to give sufficient adhesion on the surface of grape leaves. After spraying, the liquid on the stem was air-dried, and a suspension of zoosporangiua of Plasmopara viticola (about 10,000 zoosporangiua were contained in 1 ml of the suspension) was inoculated by spraying. The amount of the sprayed suspension was about 2 ml for one plant. After inoculation, the plant was first grown for one day at 23° C. under 90% or more humidity, then further grown for 6 days in the green house, which was 24° C. in daytime and 20° C. in night-time.
Then, the areas of a lesion of the plants were obserbed. […]

Phytophthora infestans = format: in vivo; conditions: tomato (variety: Ponterosa), flowable diluted to 200 ppm, foliar spray before inoculation, observed after 1 day at 23° C. plus 4 days in green house; Test Example 2

COc1ccc(-c2ncccc2NC(=O)C(O)c2ccc(C)cc2)cc1OC (stereo not drawn) [I-4, N-{2-(3,4-dimethoxyphenyl)pyridine-3-yl}-2-hydroxy-2-(4-methylphenyl)acetamide]
lesion area on treated plants relative to the lesion area on a non-treatment plant (Plasmopara viticola): not more than 10%

COc1ccc(-c2ncccc2NC(=O)C(=C(Cl)Cl)c2ccc(Cl)cc2)cc1OC [I-11, N-(2-(3,4-dimethoxyphenyl)-pyridine-3-yl)-2-(chlorophenyl)-3,3-dichloroacrylamide]
lesion area on treated plants relative to the lesion area on a non-treatment plant (Phytophthora infestans): not more than 10%

C#CCOC(C(=O)Nc1cccnc1-c1ccc(OC)c(OC)c1)c1ccc(Cl)cc1 (stereo not drawn) [I-1, N-(2-(3,4-dimethoxyphenyl)pyridine-3-yl)-2-(2-propynyloxy)-2-(4-chlorophenyl)acetamide]
melting point: 125.2 °C
